Source: publication PMC8597757, “Pharmacokinetic and Safety Profile of the Novel HIV Nonnucleoside Reverse Transcriptase Inhibitor MK-8507 in Adults without HIV” (Antimicrobial Agents and Chemotherapy, 2021)
“Also recorded” adds a separate entry of the source.

Columns and labels:
[1] = Single-dose plasma pharmacokinetics of MK-8507 (suspension, study 1; tablet, study 2); assay type: in vivo; conditions: human; for Cmax: n=6, read-out: Cmax (geometric mean [95% CI]); for AUC(0-t): n=6, read-out: AUC0–168 (geometric mean [95% CI]); for concentration at 168 h: n=6, read-out: C168hr (geometric mean [95% CI])
Method: (§1) Study 1 was a 4-period, alternating panel (A and B), rising single-dose trial. Participants in each panel were randomized to receive single rising doses of MK-8507 (n = 6 per panel) or placebo (n = 2 per panel) as an oral suspension. All study drugs were administered after an overnight fast, except in period 4. […] There was a minimum 20-day washout interval between doses within each panel and a 10-day interval between each dosing period. […] MK-8507 in plasma was extracted by protein precipitation and analyzed by reversed-phase chromatographic separation coupled with tandem mass spectrometric detection by Merck & Co., Inc. (West Point, PA, USA). The liquid chromatography-tandem mass spectrometric (LC-MS/MS) system consisted of a Waters Acquity ultraperformance liquid chromatography system (Waters Corporation, Milford, MA, USA) employing a turbo ionspray interface in the negative ion mode. The lower limit of quantitation was 1.0 ng/mL (2.03 nM) with a linear calibration range from 1.0 to 1000 ng/mL. The mean intrarun accuracy was 94.8 to 113% (precision, ≤6.2% coefficient of variation [CV]), and the mean interrun accuracy was 94.4 to 103.0% (precision, ≤8.6% CV). […] Statistical analyses were performed using SAS software version 9.3 (SAS Institute Inc., Cary, NC, USA). […] The least-squares geometric mean (GM) and corresponding 95% CIs obtained from the models were exponentiated to provide estimates for the population GMs and CIs on the original scales.

[2] = Food effect assessment (100 mg suspension, high-fat meal vs fasted); assay type: in vivo, human
Method: as §1

[3] = Dose proportionality assessment of single oral doses 2 to 1,200 mg; assay type: in vivo, human
Description: The AUC0-168hr and […] group was not statistically significant at the 0.05 level and was therefore omitted from the final model. An overall slope was estimated across all groups.

[4] = Cross-study formulation comparison, 400 mg tablet vs suspension; assay type: in vivo, human
Method: Statistical analyses were performed using SAS software version 9.3 (SAS Institute Inc., Cary, NC, USA). […] The least-squares geometric mean (GM) and corresponding 95% CIs obtained from the models were exponentiated to provide estimates for the population GMs and CIs on the original scales. To assess the effect of food, 90% CIs were calculated for the GMR (fed/fasted) of MK-8507 AUC0-∞, Cmax, and C168hr. […] The point estimates and the corresponding 95% CIs were obtained from the model for GM of each formulation; the GMR and 90% CIs comparing tablet to suspension were estimated using the model.

[5] = Safety and tolerability in phase 1 studies; assay type: in vivo, human
Method: The safety and tolerability of MK-8507 were assessed by clinical evaluation, including vital signs, 12-lead electrocardiograms, laboratory safety tests, and clinical monitoring of AEs.

CYP3A4 = conditions: preclinical in vitro studies, no reference given; cited from earlier work
[6] = system: common NNRTI resistance-associated variants; conditions: cited from earlier work
[7] = po, 30 mg, single oral dose 30 mg, suspension, fasted
[8] = po, 400 mg, single oral dose 400 mg, suspension, fasted
[9] = 100 mg suspension, compared with fasted administration

For `N#Cc1cc(Cl)cc(Oc2c(C(F)(F)F)ncn(Cc3cc(C(F)(F)F)c(=O)[nH]n3)c2=O)c1` [MK-8507], the half-life ([1]; oral, overall, discussion, read-out: terminal t½ (converted)) was ~70 h, the half-life ([1]; oral, single doses 2 to 1,200 mg, range across doses, read-out: mean terminal half-life (t1/2)) was 58 to 84 h and the half-life ([1]; oral, some participants, 336 h of PK sampling, read-out: t1/2 in some participants) was > 100 h. It also gave a Tmax ([1]; oral, suspension, fasted, range across doses, read-out: median Tmax) of 2 to 4 h, a Cmax ([1]; po, 2 mg, single oral dose 2 mg, suspension, fasted) of 50 nM and an AUC(0-inf) ([1]; po, 10 mg, single oral dose 10 mg, suspension, fasted, n=6, read-out: AUC0-∞ (geometric mean [95% CI])) of 15.2 µM·h. The Cmax ([1]; po, 10 mg, single oral dose 10 mg, suspension, fasted) was 220 nM, the AUC(0-t) [1, 7] was 39.7 µM·h and the concentration at 168 h [1, 7] was 100 nM. It also gave a Tmax ([1]; po, 30 mg, single oral dose 30 mg, suspension, fasted, n=6, read-out: Tmax (median [min, max])) of 2 h, a Tmax ([1]; po, 100 mg, single oral dose 100 mg, suspension, fasted, n=6, read-out: Tmax (median [min, max])) of 2.04 h and an AUC(0-t) ([1]; po, 200 mg, single oral dose 200 mg, suspension, fasted) of 287 µM·h. For the same molecule, the concentration at 168 h [1, 8] was 1300 nM, the Cmax [1, 8] was 11500 nM and the Tmax ([1]; po, oral doses across both studies, suspension or tablet, read-out: time to maximum concentration (Tmax)) was 2 to 7 h. The “effect of a high-fat meal on MK-8507 pharmacokinetics” value ([2]; 100 mg suspension) was “no clinically meaningful effect; also recorded: no meaningful effect on AUC0–∞ or C168hr”, the “change in C168hr by a high-fat meal” value [2, 9] was “no change” and the “decrease of AUC0–∞ by a high-fat meal” value [2, 9] was ~9%. For the same molecule, the “decrease of Cmax by a high-fat meal” value [2, 9] was 35%, the “delay of Tmax by a high-fat meal” value [2, 9] was ~8 h and the AUC(0-inf) ([2]; human, single oral dose 100 mg (fed), suspension, following a high-fat meal, plasma, n=6, read-out: AUC0-∞ (geometric mean [95% CI])) was 159 µM·h. The AUC(0-t) ([2]; human, single oral dose 100 mg (fed), suspension, following a high-fat meal, plasma, n=6, read-out: AUC0–168 (geometric mean [95% CI])) was 126 µM·h, the half-life ([2]; human, single oral dose 100 mg (fed), suspension, following a high-fat meal, plasma, n=6, read-out: Apparent terminal t½ (geometric mean [%GVC]) (converted)) was 72.6 h and the concentration at 168 h ([2]; human, single oral dose 100 mg (fed), suspension, following a high-fat meal, plasma, n=6, read-out: C168hr (geometric mean [95% CI])) was 310 nM. For the same molecule, the Cmax ([2]; human, single oral dose 100 mg (fed), suspension, following a high-fat meal, plasma, n=6, read-out: Cmax (geometric mean [95% CI])) was 1670 nM, the Tmax ([2]; human, single oral dose 100 mg (fed), suspension, following a high-fat meal, plasma, n=6, read-out: Tmax (median [min, max])) was 10 h and the “GMR fed/fasted, C168hr” value ([2]; single oral dose 100 mg suspension, high-fat meal vs overnight fast, n=6) was 1.02. The “dose proportionality of pharmacokinetics” value ([3]; 2 to 1,200 mg) was “increased dose proportionally; also recorded: approximately dose proportional”, the “Estimate of slope, C168hr as a function of dose” value ([3]; single oral doses of 2 to 1,200 mg, ln-ln linear mixed-effect model) was 0.9932 and the “reduction of Cmax, tablet compared to suspension” value ([4]; 400-mg dose) was 21%. For the same molecule, the “GMR (90% CI) tablet/suspension, C168hr” value ([4]; 400-mg single dose) was 0.93 (0.66, 1.29), the “changes in clinical laboratory assessments, vital signs, electrocardiograms” value ([5]; both studies) was “no clinically meaningful changes; also recorded: No clinically meaningful relationships were observed” and the “discontinuation due to an adverse experience” value ([5]; both studies) was “no participants discontinued”. The “seriousness and intensity of adverse events” value ([5]; both studies) was “nonserious and mild in intensity”, the tolerability ([5]; single and multiple QW doses) was “generally well tolerated” and the participants with cough ([5]; study 1) was 3. It also gave a participants with headache ([5]; study 1) of 4, a participants with myalgia ([5]; study 1) of 2 and a participants with rhinorrhea ([5]; study 1) of 2. The “AEs considered related to MK-8507” value ([5]; study 1, single dose) was “none”, the “total nonserious AEs” value ([5]; study 1, single oral dose of MK-8507) was 38 and the “AEs considered related to MK-8507” value ([5]; study 2, multiple doses) was “none”. For the same molecule, the “total nonserious AEs” value ([5]; study 2, multiple doses of MK-8507) was 13, the “AEs considered related to MK-8507” value ([5]; study 2, single doses (decreased appetite)) was “One” and the “total nonserious AEs” value ([5]; study 2, single doses of MK-8507) was 10. For the same molecule, the “induction of CYP3A4 expression in vitro” value (CYP3A4) was “demonstrated the potential to induce expression of CYP3A4” and the “in vitro activity against common NNRTI resistance-associated variants” value [6] was “demonstrated in vitro activity”.
